Data: patent publication US6281248A, “Composition for treating asthma” (priority 2000, dated 2001)

Experiments:
[1] = In vitro biochemical testing of N-demethylsertraline
[2] = In vivo pharmacological testing of N-demethylsertraline
[3] = Desmethylsertraline pharmacokinetics, day 1 to day 14; format: in vivo
[4] = tested on: plasma protein binding of warfarin; test: Plasma protein binding of warfarin; format: in vitro ADME; conditions: sertraline up to 300 ng/mL, desmethylsertraline up to 200 ng/mL
[5] = tested on: plasma protein binding of propranolol; test: Plasma protein binding of propranolol; format: in vitro ADME; conditions: sertraline up to 300 ng/mL, desmethylsertraline up to 200 ng/mL
Metabolism = conditions: in vivo
[6] = Plasma clearance in elderly patients
[7] = Solubility of the present invention; format: physicochemical
[8] = In vitro protein binding with radiolabeled 3H-sertraline; format: in vitro ADME; conditions: serum, 20 to 500 ng/mL, read-out: binding to serum proteins (converted)
[9] = Electrocardiograms of patients in double-blind trials; format: in vivo, human; conditions: 774 patients
[10] = tested on: beta-adrenergic blocking ability of atenolol; test: Interaction with atenolol in healthy male subjects; format: in vivo, human; conditions: 100 mg
bacteria = test: Bacterial mutation assay; format: cell-based; conditions: with or without metabolic activation
mouse lymphoma = test: Mouse lymphoma mutation assay; format: cell-based; conditions: with or without metabolic activation
[11] = single dose, with vs without food
[12] = not given; remark: listed apart in the source
[13] = not given; remark: listed apart in the source
clinical [14] = conditions: human, plasma
clinical [15] = conditions: human, in vivo
clinical [16] = conditions: human, in vivo, mean half-life
clinical [17] = conditions: human, in vivo; remark: listed apart in the source
[18] = tested on: dopamine neuronal reuptake; test: In vitro neuronal dopamine reuptake; conditions: animals

## N[C@H]1CC[C@@H](c2ccc(Cl)c(Cl)c2)c2ccccc21 [N-demethylsertraline]
[1]
  activity in in vitro biochemical testing relative to sertraline: substantially less active than sertraline
[2]
  activity in in vivo pharmacological testing relative to sertraline: substantially less active than sertraline
[3]; day 1 to day 14
  increase in AUC (0-24 hour) between day 1 and day 14: 5-9 fold
  increase in Cmax between day 1 and day 14: 5-9 fold
  increase in Cmin between day 1 and day 14: 5-9 fold
[3]; in vivo
  time and dose dependence of AUC (0-24 hour), Cmax, and Cmin: time-related, dose dependent increases
[4]
  alteration of plasma protein binding of warfarin: did not alter
[5]
  alteration of plasma protein binding of propranolol: did not alter
Metabolism
  metabolic pathway: oxidative deamination and subsequent reduction, hydroxylation, and glucuronide conjugation
[6]; older males
  clearance in older males: decreased clearance

## CN[C@H]1CC[C@@H](c2ccc(Cl)c(Cl)c2)c2ccccc21.Cl [sertraline, (1S-cis)-4-(3,4-dichlorophenyl)-1,2,3,4-tetrahydro-N-methyl-1-naphthalenamine hydrochloride]
[7]; ethanol
  solubility in ethanol: sparing soluble
[7]; isopropyl alcohol
  solubility in isopropyl alcohol: slightly soluble
[7]; water
  solubility in water: slightly soluble
[8]
  fraction unbound: 0.02
[9]
  ECG abnormalities: not associated with the development of significant ECG abnormalities
[10]
  effect on the beta-adrenergic blocking ability of atenolol: no effect
bacteria
  genotoxic effects, bacterial mutation assay: no genotoxic effects
Mouse lymphoma
  genotoxic effects, mouse lymphoma mutation assay: no genotoxic effects
once-daily dosing, based on half-life
  time to steady-state plasma levels: approximately one
Single dose, 50 to 200 mg
  Cmax dose proportionality: proportional to dose
[11]
  AUC with food: slightly increased
  Cmax increase with food: 25%
[12]
  unchanged sertraline in the urine: not detectable
[13]; human, in vivo
  mean half-life: 27.8 h
[13]; pediatric patients, males and females
  gender associated differences: No gender associated differences were observed
Clinical [14]
  half-life: ~26 h
Clinical [15]
  dose excreted at 216 h: 12 to 14%
Clinical [16]
  half-life: 26.2 h
Clinical [17]
  half-life: 27.2 h
Metabolism
  first pass metabolism: extensive first pass metabolism
  metabolic pathway: oxidative deamination and subsequent reduction, hydroxylation, and glucuronide conjugation
  principal initial pathway of metabolism: N-demethylation
[18]
  effects on dopamine neuronal reuptake: only very weak effects
[6]; elderly, 100 mg/day for 14 days, vs 25 to 32 y.o.
  plasma clearance lower than in younger individuals: approximately 40%
